Organism: Rattus norvegicus
Assay: Open TG-GATES - Regimen: Daily Repeat
Format: toxicity, organism-based, Sprague-Dawley
Design: regimen Daily Repeat, gender Male, age 6 weeks
Settings: in vivo, po, route gavage; for APTT / Bas / Eos / Fbg / Hb / Ht / Lym / MCH / MCHC / MCV / Mono / Neu / PT / Plat / RBC / Ret / WBC: tissue Blood; for KIDNEY_L / KIDNEY_R / KIDNEY_TOTAL: tissue Kidney; for LIVER: tissue Liver; for A/G / ALP / ALT / AST / BUN / CRE / Ca / Cl / DBIL / GLC / IP / K / LDH / Na / PL / RALB / TBIL / TC / TG / TP / gamma-GTP: tissue Plasma
[1] = 0 mg/kg, 72 h, dose level Control, time 3 day
[2] = 0 mg/kg, […], dose level Control, time 7 day
[3] = 0 mg/kg, […], dose level Control, time 14 day
[4] = 0 mg/kg, […], dose level Control, time 28 day
[5] = 100 mg/kg, 72 h, dose level Low, time 3 day
[6] = 100 mg/kg, […], dose level Low, time 7 day
[7] = 100 mg/kg, […], dose level Low, time 14 day
[8] = 100 mg/kg, […], dose level Low, time 28 day

CN/C(=N/CCSCc1nc[nH]c1C)NC#N [CIMETIDINE]
TERMINAL_BW [1]: 226.2 g
APTT [1]: 20.3 s
Bas [1]: 0.4%
Eos [1]: 0.6%
Fbg [1]: 220.2 mg/dL
Hb [1]: 13.5 g/dL
Ht [1]: 40.5%
Lym [1]: 84.6%
MCH [1]: 21 pg
MCHC [1]: 33.4%
MCV [1]: 63.1 fL
Mono [1]: 2.2%
Neu [1]: 11.2%
PT [1]: 12.7 s
Plat [1]: 132.2 x10_4/uL
RBC [1]: 642.2 x10_4/ul
Ret [1]: 6.3%
WBC [1]: 102.1 x10_2/uL
KIDNEY_L [1]: 1 g
KIDNEY_R [1]: 1 g
KIDNEY_TOTAL [1]: 2 g
LIVER [1]: 10.7 g
A/G [1]: 1.7
ALP [1]: 1069.6 IU/L
ALT [1]: 36.6 IU/L
AST [1]: 71 IU/L
BUN [1]: 14.4 mg/dL
CRE [1]: 0.4 mg/dL
Ca [1]: 10.7 mg/dL
Cl [1]: 102.8 meq/L
DBIL [1]: 0.1 mg/dL
GLC [1]: 198.2 mg/dL
IP [1]: 7.1 mg/dL
K [1]: 3.7 meq/L
LDH [1]: 150 IU/L
Na [1]: 141.2 meq/L
PL [1]: 158 mg/dL
RALB [1]: 3.5 g/dL
TBIL [1]: 0.2 mg/dL
TC [1]: 75.8 mg/dL
TG [1]: 103 mg/dL
TP [1]: 5.7 g/dL
gamma-GTP [1]: 1 IU/L
TERMINAL_BW [2]: 261.3 g
TERMINAL_BW [3]: 315.1 g
TERMINAL_BW [4]: 384.7 g
APTT [2]: 18.7 s
Bas [2]: 0.2%
Eos [2]: 0.6%
Fbg [2]: 228 mg/dL
Hb [2]: 14 g/dL
Ht [2]: 41.6%
Lym [2]: 80%
MCH [2]: 21.5 pg
MCHC [2]: 33.5%
MCV [2]: 64.2 fL
Mono [2]: 2.2%
Neu [2]: 15%
PT [2]: 12.1 s
Plat [2]: 129.9 x10_4/uL
RBC [2]: 649 x10_4/ul
Ret [2]: 5.8%
WBC [2]: 117.4 x10_2/uL
APTT [3]: 18.6 s
Bas [3]: 0%
Eos [3]: 0.8%
Fbg [3]: 218.6 mg/dL
Hb [3]: 14.3 g/dL
Ht [3]: 43.5%
Lym [3]: 79.2%
MCH [3]: 20 pg
MCHC [3]: 33%
MCV [3]: 60.7 fL
Mono [3]: 2.8%
Neu [3]: 16.8%
PT [3]: 12.1 s
Plat [3]: 129.1 x10_4/uL
RBC [3]: 717.8 x10_4/ul
Ret [3]: 4.6%
WBC [3]: 120.6 x10_2/uL
APTT [4]: 20.4 s
Bas [4]: 0%
Eos [4]: 1.2%
Fbg [4]: 205.8 mg/dL
Hb [4]: 15.1 g/dL
Ht [4]: 44.2%
Lym [4]: 79.2%
MCH [4]: 19.2 pg
MCHC [4]: 34.1%
MCV [4]: 56.4 fL
Mono [4]: 2.2%
Neu [4]: 16.6%
PT [4]: 12.9 s
Plat [4]: 99.1 x10_4/uL
RBC [4]: 784 x10_4/ul
Ret [4]: 2.6%
WBC [4]: 121.2 x10_2/uL
KIDNEY_L [2]: 1.1 g
KIDNEY_R [2]: 1.1 g
KIDNEY_TOTAL [2]: 2.1 g
KIDNEY_L [3]: 1.3 g
KIDNEY_R [3]: 1.2 g
KIDNEY_TOTAL [3]: 2.5 g
KIDNEY_L [4]: 1.5 g
KIDNEY_R [4]: 1.5 g
KIDNEY_TOTAL [4]: 2.9 g
LIVER [2]: 12.5 g
LIVER [3]: 14.1 g
LIVER [4]: 15.5 g
A/G [2]: 1.5
ALP [2]: 1067.6 IU/L
ALT [2]: 33.2 IU/L
AST [2]: 62.4 IU/L
BUN [2]: 16.6 mg/dL
CRE [2]: 0.4 mg/dL
Ca [2]: 10.7 mg/dL
Cl [2]: 103.2 meq/L
DBIL [2]: 0.1 mg/dL
GLC [2]: 236.6 mg/dL
IP [2]: 8 mg/dL
K [2]: 3.9 meq/L
LDH [2]: 165.2 IU/L
Na [2]: 141.2 meq/L
PL [2]: 156.4 mg/dL
RALB [2]: 3.4 g/dL
TBIL [2]: 0.2 mg/dL
TC [2]: 73.6 mg/dL
TG [2]: 138.8 mg/dL
TP [2]: 5.7 g/dL
gamma-GTP [2]: 1 IU/L
A/G [3]: 1.4
ALP [3]: 861.4 IU/L
ALT [3]: 41.4 IU/L
AST [3]: 72.8 IU/L
BUN [3]: 17 mg/dL
CRE [3]: 0.4 mg/dL
Ca [3]: 10.6 mg/dL
Cl [3]: 102.6 meq/L
DBIL [3]: 0.1 mg/dL
GLC [3]: 215.2 mg/dL
IP [3]: 7.4 mg/dL
K [3]: 4.1 meq/L
LDH [3]: 169.6 IU/L
Na [3]: 141.4 meq/L
PL [3]: 155.6 mg/dL
RALB [3]: 3.4 g/dL
TBIL [3]: 0.2 mg/dL
TC [3]: 70.8 mg/dL
TG [3]: 168.4 mg/dL
TP [3]: 5.9 g/dL
gamma-GTP [3]: 1 IU/L
A/G [4]: 1.2
ALP [4]: 772.6 IU/L
ALT [4]: 31 IU/L
AST [4]: 59.6 IU/L
BUN [4]: 16.2 mg/dL
CRE [4]: 0.5 mg/dL
Ca [4]: 10.1 mg/dL
Cl [4]: 102.4 meq/L
DBIL [4]: 0.1 mg/dL
GLC [4]: 235.6 mg/dL
IP [4]: 6.6 mg/dL
K [4]: 3.6 meq/L
LDH [4]: 151.6 IU/L
Na [4]: 140.6 meq/L
PL [4]: 137.4 mg/dL
RALB [4]: 3.3 g/dL
TBIL [4]: 0.2 mg/dL
TC [4]: 61.8 mg/dL
TG [4]: 119.8 mg/dL
TP [4]: 6 g/dL
gamma-GTP [4]: 1 IU/L
TERMINAL_BW [5]: 228.3 g
APTT [5]: 18 s
Bas [5]: 0.2%
Eos [5]: 1%
Fbg [5]: 220 mg/dL
Hb [5]: 12.8 g/dL
Ht [5]: 38.6%
Lym [5]: 77.6%
MCH [5]: 21.1 pg
MCHC [5]: 33.2%
MCV [5]: 63.6 fL
Mono [5]: 2.6%
Neu [5]: 17.4%
PT [5]: 12.6 s
Plat [5]: 127.7 x10_4/uL
RBC [5]: 607 x10_4/ul
Ret [5]: 6.9%
WBC [5]: 97.9 x10_2/uL
KIDNEY_L [5]: 1 g
KIDNEY_R [5]: 1 g
KIDNEY_TOTAL [5]: 2 g
LIVER [5]: 10.7 g
A/G [5]: 1.5
ALP [5]: 1125.6 IU/L
ALT [5]: 37 IU/L
AST [5]: 66.4 IU/L
BUN [5]: 14.8 mg/dL
CRE [5]: 0.4 mg/dL
Ca [5]: 10.9 mg/dL
Cl [5]: 103.2 meq/L
DBIL [5]: 0.1 mg/dL
GLC [5]: 195.6 mg/dL
IP [5]: 7.1 mg/dL
K [5]: 4.2 meq/L
LDH [5]: 137.8 IU/L
Na [5]: 140.8 meq/L
PL [5]: 155.8 mg/dL
RALB [5]: 3.4 g/dL
TBIL [5]: 0.2 mg/dL
TC [5]: 78.6 mg/dL
TG [5]: 109.8 mg/dL
TP [5]: 5.6 g/dL
gamma-GTP [5]: 1.2 IU/L
TERMINAL_BW [6]: 260 g
TERMINAL_BW [7]: 308.9 g
TERMINAL_BW [8]: 402.8 g
APTT [6]: 18.3 s
Bas [6]: 0.2%
Eos [6]: 0.8%
Fbg [6]: 227.6 mg/dL
Hb [6]: 13.5 g/dL
Ht [6]: 40.3%
Lym [6]: 81.6%
MCH [6]: 20.8 pg
MCHC [6]: 33.4%
MCV [6]: 62.2 fL
Mono [6]: 2%
Neu [6]: 14.6%
PT [6]: 12.2 s
Plat [6]: 126 x10_4/uL
RBC [6]: 648.2 x10_4/ul
Ret [6]: 5.4%
WBC [6]: 111.1 x10_2/uL
APTT [7]: 19.3 s
Bas [7]: 0%
Eos [7]: 1%
Fbg [7]: 219.2 mg/dL
Hb [7]: 14.4 g/dL
Ht [7]: 43.9%
Lym [7]: 83.8%
MCH [7]: 19.5 pg
MCHC [7]: 32.8%
MCV [7]: 59.5 fL
Mono [7]: 2.2%
Neu [7]: 13%
PT [7]: 12.7 s
Plat [7]: 120.2 x10_4/uL
RBC [7]: 737.8 x10_4/ul
Ret [7]: 3.9%
WBC [7]: 93.7 x10_2/uL
APTT [8]: 19.7 s
Bas [8]: 0.2%
Eos [8]: 1.2%
Fbg [8]: 217.4 mg/dL
Hb [8]: 14.6 g/dL
Ht [8]: 42.3%
Lym [8]: 79.4%
MCH [8]: 19.2 pg
MCHC [8]: 34.5%
MCV [8]: 55.8 fL
Mono [8]: 2.8%
Neu [8]: 15.6%
PT [8]: 12.9 s
Plat [8]: 114 x10_4/uL
RBC [8]: 758.2 x10_4/ul
Ret [8]: 2.8%
WBC [8]: 137.9 x10_2/uL
KIDNEY_L [6]: 1.1 g
KIDNEY_R [6]: 1.1 g
KIDNEY_TOTAL [6]: 2.2 g
KIDNEY_L [7]: 1.2 g
KIDNEY_R [7]: 1.3 g
KIDNEY_TOTAL [7]: 2.5 g
KIDNEY_L [8]: 1.4 g
KIDNEY_R [8]: 1.4 g
KIDNEY_TOTAL [8]: 2.8 g
LIVER [6]: 13 g
LIVER [7]: 13.9 g
LIVER [8]: 17.6 g
A/G [6]: 1.5
ALP [6]: 831 IU/L
ALT [6]: 34.8 IU/L
AST [6]: 64.2 IU/L
BUN [6]: 16.6 mg/dL
CRE [6]: 0.4 mg/dL
Ca [6]: 10.7 mg/dL
Cl [6]: 102 meq/L
DBIL [6]: 0.096 mg/dL
GLC [6]: 252.8 mg/dL
IP [6]: 7.8 mg/dL
K [6]: 4 meq/L
LDH [6]: 155 IU/L
Na [6]: 139.6 meq/L
PL [6]: 161 mg/dL
RALB [6]: 3.3 g/dL
TBIL [6]: 0.1 mg/dL
TC [6]: 78.8 mg/dL
TG [6]: 121 mg/dL
TP [6]: 5.6 g/dL
gamma-GTP [6]: 1.2 IU/L
A/G [7]: 1.4
ALP [7]: 969.6 IU/L
ALT [7]: 42 IU/L
AST [7]: 74.8 IU/L
BUN [7]: 17.6 mg/dL
CRE [7]: 0.4 mg/dL
Ca [7]: 10.5 mg/dL
Cl [7]: 102 meq/L
DBIL [7]: 0.1 mg/dL
GLC [7]: 205.2 mg/dL
IP [7]: 7.1 mg/dL
K [7]: 4 meq/L
LDH [7]: 210.8 IU/L
Na [7]: 141.4 meq/L
PL [7]: 142.2 mg/dL
RALB [7]: 3.4 g/dL
TBIL [7]: 0.2 mg/dL
TC [7]: 62.8 mg/dL
TG [7]: 137.8 mg/dL
TP [7]: 5.9 g/dL
gamma-GTP [7]: 0.8 IU/L
A/G [8]: 1.4
ALP [8]: 672 IU/L
ALT [8]: 35.4 IU/L
AST [8]: 66.4 IU/L
BUN [8]: 18.6 mg/dL
CRE [8]: 0.6 mg/dL
Ca [8]: 10.3 mg/dL
Cl [8]: 101.6 meq/L
DBIL [8]: 0.1 mg/dL
GLC [8]: 264.2 mg/dL
IP [8]: 6.9 mg/dL
K [8]: 3.5 meq/L
LDH [8]: 186 IU/L
Na [8]: 140.4 meq/L
PL [8]: 150.8 mg/dL
RALB [8]: 3.5 g/dL
TBIL [8]: 0.2 mg/dL
TC [8]: 70.2 mg/dL
TG [8]: 167.4 mg/dL
TP [8]: 6 g/dL
gamma-GTP [8]: 1.2 IU/L
